In patent publication US20250042922A1, “KRAS MODULATING COMPOUNDS” (priority 2023, published 2025) one finds IC50 and EC50 data, which are given here for seven molecules.

Test [1] addresses GDP-loaded wild-type KRAS (WT) (Homo sapiens, UniProt P01116). The test can be described thus: KRAS (GDP) biochemical TR-FRET probe displacement assay, WT. The class given is binding. The settings on record: 2 hours. On the procedure:
(§1) Compounds are tested for binding to GDP-loaded wild-type KRAS (WT), KRAS-G12C, KRAS-G12D, and KRAS-G12V in a 384-well assay format using a TR-FRET probe displacement assay in buffer consisting of 50 mM Hepes (pH 7.4), 150 mM NaCl, 5 mM MgCl2 and 0.005% Tween-20. […] Compounds are serially diluted (1:3) in DMSO. The LabCyte ECHO Acoustic dispenser was used to pre-spot the assay plates (384-well Non-Binding Surface plates, Corning, Catalog #3824) with 50 nL of compound. 5 μL of 2X enzyme concentration is added to the pre-spotted plates and incubated for 30 minutes before adding 5 μL of 2X concentration of Eu-streptavidin and Cy-5 labelled probe (10 μL final reaction volume). The plates are incubated at room temperature for 2 hours before measuring TR-FRET ratio (665 nm/615 nm) on the Envision multimode plate reader. The ratios are normalized to a positive (saturating concentration of known inhibitor) and negative (DMSO) control and plotted against the log of compound concentration.
On the technique in general: Time-resolved FRET reads energy transfer from a long-lived donor to a nearby acceptor.

A further test has as its target GDP-loaded KRAS-G12C (Homo sapiens, UniProt P01116, G12C). The test can be described thus: KRAS (GDP) biochemical TR-FRET probe displacement assay, G12C. The class given is binding. The settings on record: 2 hours. On the procedure: as §1
A further test deals with GDP-loaded KRAS-G12V (Homo sapiens, UniProt P01116, G12V). Description: KRAS (GDP) biochemical TR-FRET probe displacement assay, G12V. The class given is binding. The settings on record: 2 hours. As for the experimental part:
as §1

The next test addresses GDP-loaded KRAS-G12D (Homo sapiens, UniProt P01116, G12D). Description: KRAS (GDP) biochemical TR-FRET probe displacement assay, G12D. The settings on record: 2 hours. The class given is binding. As for the experimental part:
as §1

Test [2] has as its system cellular pERK in Kuramochi (WT KRAS) cells. The test can be described thus: Cell based pERK assay, Kuramochi. Conditions: Kuramochi (WT KRAS), 2 hours incubation, HTRF phospho-ERK1/2; read-out: Kuramochi pERK EC50. The procedure, abridged: (§2)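 Cells seeded overnight (5000 AsPC-1 or 7500 others per well; RPMI/10% FBS, DMEM/10% FBS for MIA-PaCa-2), treated with 1:3 serial dilutions for 2 h at 37 °C. Phospho-ERK1/2 (Thr202/Tyr204) measured by HTRF (665/615 nm) after overnight lysis, normalized to DMSO and saturating known-inhibitor controls.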

Test [3] has as its system cellular pERK in MIA-PaCa-2 (KRAS-G12C) cells. The test can be described thus: Cell based pERK assay, MIA-PaCa-2. The settings on record: Homo sapiens; MIA-PaCa-2 (KRAS-G12C), 2 hours incubation, HTRF phospho-ERK1/2; read-out: MIAPaCa2 pERK EC50. In short, it runs like this:
as §2

Test [4] relates to cellular pERK in NCI-H441 (KRAS-G12V) cells. Description: Cell based pERK assay, NCI-H441. The settings on record: Homo sapiens; NCI-H441 (KRAS-G12V), 2 hours incubation, HTRF phospho-ERK1/2; read-out: H441 PERK EC50. The procedure, abridged: as §2
Test [5] relates to cellular pERK in ASPC-1 (KRAS G12D) cells. The test can be described thus: Cell based pERK assay, ASPC-1. Conditions: Homo sapiens, ASPC1; ASPC-1 (KRAS G12D), 2 hours incubation, HTRF phospho-ERK1/2; read-out: AsPC1 pERK EC50. In short, it runs like this: as §2

Chain of GDP-loaded KRAS-G12V (P01116 1-188 isoform P01116-2 G12V): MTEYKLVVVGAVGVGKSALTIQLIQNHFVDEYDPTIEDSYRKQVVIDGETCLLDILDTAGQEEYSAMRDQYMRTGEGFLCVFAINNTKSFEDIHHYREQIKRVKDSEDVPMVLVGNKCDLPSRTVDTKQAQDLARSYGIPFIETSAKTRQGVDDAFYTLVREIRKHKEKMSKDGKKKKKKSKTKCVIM
Chain of GDP-loaded KRAS-G12C (P01116 1-188 isoform P01116-2 G12C): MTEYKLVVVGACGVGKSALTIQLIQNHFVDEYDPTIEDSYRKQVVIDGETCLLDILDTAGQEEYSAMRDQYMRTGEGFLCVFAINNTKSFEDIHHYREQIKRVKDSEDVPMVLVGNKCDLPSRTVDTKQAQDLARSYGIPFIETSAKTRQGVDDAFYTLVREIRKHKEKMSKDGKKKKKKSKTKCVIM
Chain of GDP-loaded wild-type KRAS (WT) (P01116 1-188 isoform P01116-2): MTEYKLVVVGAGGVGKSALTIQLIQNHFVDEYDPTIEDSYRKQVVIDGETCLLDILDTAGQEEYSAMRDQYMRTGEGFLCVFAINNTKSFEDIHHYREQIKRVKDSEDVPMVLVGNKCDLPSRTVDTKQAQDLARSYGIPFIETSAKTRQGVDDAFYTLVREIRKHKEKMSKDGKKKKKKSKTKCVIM
Chain of GDP-loaded KRAS-G12D (P01116 1-188 isoform P01116-2 G12D): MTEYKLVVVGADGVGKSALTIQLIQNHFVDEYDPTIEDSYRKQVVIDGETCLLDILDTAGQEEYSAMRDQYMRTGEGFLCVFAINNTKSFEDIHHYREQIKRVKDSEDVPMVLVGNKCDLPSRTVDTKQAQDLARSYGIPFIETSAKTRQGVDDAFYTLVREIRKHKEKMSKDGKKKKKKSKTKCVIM

In the case of `C/C=C\c1c(Cl)cc2[nH]ncc2c1-c1nc2c3c(nc(OCC45CCCN4CCC5)nc3c1F)N1C[C@@]3(F)CC[C@](F)(N3)[C@H]1CCC2` [Example 4-26, (4S,7R,8R)-14-[6-chloro-5-[(Z)-prop-1-enyl]-1H-indazol-4-yl]-4,7,15-trifluoro-18-(1,2,3,5,6,7-hexahydropyrrolizin-8-ylmethoxy)-2,13,17,19,21-pentazapentacyclo[10.7.1.14,7.02,8.016,20]henicosa-1(19),12(20),13,15,17-pentaene], the IC50 in test [1] was found to be 1.85 nM; on GDP-loaded KRAS-G12C it was 1.24 nM; on GDP-loaded KRAS-G12V, 4.33 nM; at GDP-loaded KRAS-G12D, 6.69 nM. In addition, the EC50 in test [2] worked out at 4.34 nM; in test [3], 0.785 nM; in test [4] it was 31.4 nM; in test [5], 45.4 nM.

For the molecule `C[C@H]1Cc2nc(-c3cc(O)cc4ccc(F)c(Cl)c34)c(F)c3nc(OCC45CCCN4CCC5)nc(c23)N2C[C@@]3(F)CC[C@](F)(N3)[C@H]12` [Example 4-30, 5-chloro-6-fluoro-4-((5S,5aS,6R,9S)-1,6,9-trifluoro-5-methyl-12-((tetrahydro-1H-pyrrolizin-7a(5H)-yl)methoxy)-4,5,5a,6,7,8,9,10-octahydro-3,10a,11,13,14-pentaaza-6,9-methanonaphtho[1,8-ab]heptalen-2-yl)naphthalen-2-ol], the IC50 was determined as 0.092 nM in test [1], 0.194 nM on GDP-loaded KRAS-G12C, 0.405 nM at GDP-loaded KRAS-G12V and 0.869 nM at GDP-loaded KRAS-G12D. In addition, the EC50 in test [2] was 1.94 nM; in test [3] it was 0.365 nM; in test [4] it was 4.88 nM; in test [5], 18 nM.

As for `C#Cc1c(F)ccc2cc(N)cc(-c3nc4c5c(nc(OC[C@@]67CCCN6[C@H](COC(C(F)(F)F)(C(F)(F)F)C(F)(F)F)CC7)nc5c3F)N3C[C@@]5(F)CC[C@](F)(N5)[C@@H]3[C@@H](C)C4)c12` [Example 4-36, 5-ethynyl-6-fluoro-4-((5S,5aS,6R,9S)-1,6,9-trifluoro-12-(((3S,7aS)-3-(((1,1,1,3,3,3-hexafluoro-2-(trifluoromethyl)propan-2-yl)oxy)methyl)tetrahydro-1H-pyrrolizin-7a(5H)-yl)methoxy)-5-methyl-4,5,5a,6,7,8,9,10-octahydro-3,10a,11,13,14-pentaaza-6,9-methanonaphtho[1,8-ab]heptalen-2-yl)naphthalen-2-amine], the IC50 (in test [1]; at GDP-loaded KRAS-G12C; at GDP-loaded KRAS-G12V; on GDP-loaded KRAS-G12D) was greater than 100 nM in each case. Further, the EC50 in test [2] was 671 nM; in test [3], greater than 1000 nM; in test [4], greater than 1000 nM; in test [5], greater than 1000 nM.

As to `C#Cc1c(F)ccc2cc(O)cc(-c3c(F)c4c5c(nc(OC[C@@]67CCCN6C[C@H](F)C7)nc5c3F)N3C[C@@]5(F)CC[C@H](N5)[C@H]3CC4)c12` [Example 4-41, 5-ethynyl-6-fluoro-4-((1S,4S,14aR)-4,10,12-trifluoro-8-(((2R,7aS)-2-fluorotetrahydro-1H-pyrrolizin-7a(5H)-yl)methoxy)-1,2,3,4,5,13,14,14a-octahydro-1,4-epiminoazepino[1′,2′:1,7]azepino[2,3,4-de]quinazolin-11-yl)naphthalen-2-ol], the 50% inhibitory concentration (IC50) in test [1] came out at 0.5 nM; at GDP-loaded KRAS-G12C, 0.386 nM; at GDP-loaded KRAS-G12V, 0.949 nM; at GDP-loaded KRAS-G12D, 1.41 nM. Further, the concentration for a half-maximal effect (EC50) in test [2] was found to be 8.27 nM; in test [3], 0.501 nM; in test [4], 4.42 nM; in test [5] it was 29.7 nM.

On to `C[C@H]1Cc2nc(-c3cc(N)cc4ccc(F)c(Cl)c34)c(F)c3nc(OCC45CCCN4CCC5)nc(c23)N2C[C@@]3(F)CC[C@](F)(N3)[C@H]12` [Example 5-3], for which the IC50 came out at 0.266 nM in test [1], 1.55 nM on GDP-loaded KRAS-G12C, 2.96 nM at GDP-loaded KRAS-G12V and 7.83 nM at GDP-loaded KRAS-G12D. Also, the EC50 in test [2] came to 1.45 nM; in test [3], 0.897 nM; in test [4] it was 9.64 nM; in test [5], 31.3 nM.

As to `Nc1cc(-c2nc3c4c(nc(OCC56CCCN5CCC6)nc4c2F)N2C[C@@]4(F)CC[C@](F)(N4)[C@H]2CCC3)c2c(OC(F)(F)F)c(F)ccc2c1` [Example 5-5, 6-fluoro-4-[(4S,7R,8R)-4,7,15-trifluoro-18-(1,2,3,5,6,7-hexahydropyrrolizin-8-ylmethoxy)-2,13,17,19,21-pentazapentacyclo[10.7.1.14,7.02,8.016,20]henicosa-1(19),12(20),13,15,17-pentaen-14-yl]-5-(trifluoromethoxy)naphthalen-2-amine], the IC50 in test [1] is 18.5 nM; on GDP-loaded KRAS-G12C it was 21.6 nM; at GDP-loaded KRAS-G12V, 85 nM; at GDP-loaded KRAS-G12D it was no less than 100 nM. The EC50 turned out to be 5.9 nM in test [2], 33.6 nM in test [3], 221 nM in test [4] and 519 nM in test [5].

For the molecule `C#Cc1c(F)c(F)cc2cc(N)cc(-c3nc4c5c(nc(OCC67CCCN6CCC7)nc5c3F)N3C[C@@]5(F)CC[C@](F)(N5)[C@@H]3[C@@H](C)C4)c12` [Example 5-7, 5-ethynyl-6,7-difluoro-4-((5S,5aS,6R,9S)-1,6,9-trifluoro-5-methyl-12-((tetrahydro-1H-pyrrolizin-7a(5H)-yl)methoxy)-4,5,5a,6,7,8,9,10-octahydro-3,10a,11,13,14-pentaaza-6,9-methanonaphtho[1,8-ab]heptalen-2-yl)naphthalen-2-amine], the IC50 was found to be 0.116 nM in test [1], 0.311 nM on GDP-loaded KRAS-G12C, 0.723 nM at GDP-loaded KRAS-G12V and 1.03 nM at GDP-loaded KRAS-G12D. Moreover, the EC50 in test [2] was determined as 2.75 nM; in test [3], 0.378 nM; in test [4], 3.1 nM; in test [5], 12.4 nM.

One may read the IC50 as the concentration at which inhibition is half-maximal. In general, EC50 refers to the concentration at which the effect is half-maximal.
